Experimental findings from publication PMC6572618, “Anti-Trypanosomal and Antimalarial Properties of Tetralone Derivatives and Structurally Related Benzocycloalkanones” (Medicina, 2019) are described below.

Where “and” joins values, the source holds several entries; their conditions need not be identical. Equal values may be shown once.

Holding throughout (format): cell-based
One series deals with HeLa cells. Nature of the series: In vitro cytotoxicity assay (resazurin). Here is the method: As previously described, HeLa cells (Cellonex, Johannesburg, South Africa) were seeded in 96-well plates at a density of 2 × 10^4 cells/well in Dulbecco’s modified Eagle’s medium (DMEM) (Lonza, Basel, Switzerland) supplemented with 10% fetal calf serum and antibiotics (penicillin/streptomycin/amphotericin B) and incubated overnight at 37 °C in a 5% CO2 incubator. Compounds were added to the cells at a final concentration of 20 µM, and incubation continued for 24 h. The cell viability in the wells was assessed by adding 20 µL of resazurin reagent (0.135 mg/mL resazurin in phosphate-buffered saline) and reading the fluorescence (Ex560/Em590) after an additional 2–4 h incubation. The fluorescence readings were converted to % cell viability relative to the average readings obtained from the untreated control wells.
(§1) Thirty-five tetralone derivatives (see Figure 2) and six related benzocycloalkanones (see Figure 3) were evaluated in vitro against T. b. brucei for antitrypanosomal activity through the resazurin assay protocol. The compounds were also evaluated against the chloroquine-sensitive strain (3D7) of P. falciparum for antimalarial activity using pLDH assay and against the HeLa cell line for cytotoxicity evaluation using the resazurin assay protocol.
A general note: Alamar Blue is a resazurin reagent that responds to reducing activity.

Series [1] has as its system 427 Trypanosoma brucei brucei trypomastigotes. As to the kind of experiment: In vitro anti-trypanosomal assay (resazurin). The conditions noted are these: 48 h; for % Viability at 20 µM (SD) T.b. brucei: 20 µM compound, % parasite viability relative to untreated control. The method, then: The activity of the compounds against 427 Trypanosoma brucei brucei trypomastigotes was determined as previously described. Briefly, parasites were incubated in 96-well plates with 20 µM or three-fold serial dilutions (100 µM starting concentration) of test compounds in Iscove’s modified Dulbecco’s medium (IMDM) (Lonza, Basel, Switzerland) supplemented with 10% fetal calf serum, HMI-9 supplement, hypoxanthine, and penicillin/streptomycin at 37 °C in a 5% CO2 incubator. After 48 h, 20 µL of resazurin reagent (0.135 mg/mL resazurin in phosphate-buffered saline) was added to each well and the fluorescence (Ex560/Em590) read after 2–4 h in a Spectramax M3 plate reader (Molecular Devices, San Jose, CA, USA). The fluorescence readings were used to calculate % parasite viability relative to the readings obtained from the wells containing untreated control parasite cultures. The IC50 values were determined by plotting % viability vs. log(compound) and performing a non-linear regression using a GraphPad Prism (v. 5.02) (San Diego, CA, USA).
as §1

The subject of series [2] is chloroquine sensitive strain of P. falciparum (3D7). Nature of the series: In vitro antiplasmodial assay (parasite lactate dehydrogenase, pLDH). Here is the method:
An antimalarial evaluation was performed against the chloroquine sensitive strain of P. falciparum (3D7) using the parasite lactate dehydrogenase (pLDH) assay as previously reported. Parasites were seeded at 2% parasitemia and 1% hematocrit in 96 well plates and were incubated with 20 µM of the test compounds for 48 h in culture medium consisting of Rosell Park Memorial Institute (RPMI 1640; Lonza, Basel, Switzerland) containing 25 mM 4-(2-hydroxyethyl)-1-piperazineethanesulfonic acid (HEPES), supplemented with 0.5% (w/v) Albumax II, 22 mM glucose, 0.65 mM hypoxanthine, 0.05mg/mL gentamicin, and 1% (v/v) human erythrocytes, at 37 °C under an atmosphere of 5% CO2, 5% O2, and 90% N2. The parasite lactate dehydrogenase activity in the wells was determined using the colorimetric assay method of Makler et al.. The absorbance readings were converted to % parasite viability relative to the wells containing untreated parasites.
as §1

Setting [3] is: 20 µM compound, 24 h, % cell viability relative to untreated control.

With `N#Cc1cccc(/C=C2\CCc3ccc(N)cc3C2=O)c1` [Compound 2], the “% Viability at 20 µM (SD) HeLa Cell” value with HeLa cells (setting [3]) is reported as 77 (2) %. In series [1], the “% Viability at 20 µM (SD) T.b. brucei” value is 95 (3) %. Also, in series [2] (20 µM), the “% Viability at 20 µM (SD) 3D7” value is recorded as 110 (1) %.
For the molecule `O=C1/C(=C/c2ccccc2)CCc2ccccc21` [Compound 3], in the series on HeLa cells (20 µM), the “% Viability at 20 µM (SD) HeLa Cell” value is on record as 116 (5) %. Besides, in series [1], the “% Viability at 20 µM (SD) T.b. brucei” value is listed as 43 (3) %. Further, in series [2] (20 µM compound, 48 h, P. falciparum 3D7, % parasite viability relative to untreated parasites), the “% Viability at 20 µM (SD) 3D7” value is reported as 103 (2) %.
On to `O=C1/C(=C/c2ccc(F)cc2)CCc2ccccc21` [Compound 5], for which, in the series on HeLa cells (setting [3]), the “% Viability at 20 µM (SD) HeLa Cell” value is given as 100 (2) %. Also, the “% Viability at 20 µM (SD) 3D7” value in series [2] (20 µM) is 107 (5) %.
`O=C1/C(=C/c2ccccc2)CCc2c(O)cccc21` [Compound 8]: in the series with HeLa cells (setting [3]), the “% Viability at 20 µM (SD) HeLa Cell” value is 35 (1) %. The “% Viability at 20 µM (SD) T.b. brucei” value in series [1] is 0.5 (0.1) %.
On to `O=C1/C(=C/c2ccccc2)CCc2ccc(O)cc21` [Compound 9], for which the “% Viability at 20 µM (SD) HeLa Cell” value in the series on HeLa cells (setting [3]) is 9 (0.1) %. Further, the “% Viability at 20 µM (SD) T.b. brucei” value in series [1] is on record as −4 (0.3) %. Besides, the “% Viability at 20 µM (SD) 3D7” value in series [2] (20 µM) is 101 (4) %.
Regarding `Nc1ccc2c(c1)CC/C(=C\c1ccccc1)C2=O` [Compound 11], in the series with HeLa cells (setting [3]), the “% Viability at 20 µM (SD) HeLa Cell” value is reported as 86 (9) %. Moreover, the “% Viability at 20 µM (SD) T.b. brucei” value in series [1] (20 µM) is 95% and 97 (0.3) %. Moreover, in series [2] (20 µM), the “% Viability at 20 µM (SD) 3D7” value is 111 (1) %.
For the molecule `O=C1/C(=C/c2cccc(F)c2)CCc2ccc(O)cc21` [Compound 13], in the series on HeLa cells (setting [3]), the “% Viability at 20 µM (SD) HeLa Cell” value was 21 (1) %. For the same molecule, the “% Viability at 20 µM (SD) T.b. brucei” value in series [1] was −0.9 (0.1) %. The “% Viability at 20 µM (SD) 3D7” value in series [2] (20 µM) is recorded as 13 (1) %.
On to `O=C1/C(=C/c2ccc(Cl)cc2)CCc2ccc(O)cc21` [Compound 14], for which the “% Viability at 20 µM (SD) HeLa Cell” value in the series on HeLa cells (setting [3]) was 27 (2) %. Also, in series [1], the “% Viability at 20 µM (SD) T.b. brucei” value is listed as 0.1 (0.1) %.
`O=C1/C(=C/c2cccc(Cl)c2)CCc2ccc(O)cc21` [Compound 15]: in the series on HeLa cells (setting [3]), the “% Viability at 20 µM (SD) HeLa Cell” value is 18 (0.4) %. In series [1], the “% Viability at 20 µM (SD) T.b. brucei” value is reported as 0.6 (0.01) %. Also, the “% Viability at 20 µM (SD) 3D7” value in series [2] (20 µM) was −3 (6) %.
The like results for `O=C1/C(=C/c2cccc(Cl)c2)CCc2ccccc21` [Compound 17] were, in that order, 41 (13) %, 0.2 (0.3) % and 100 (9) %.
The matching figures for `O=C1/C(=C/c2cccc(Br)c2)CCc2ccc(O)cc21` [Compound 18]: 26 (3) %, 1.2 (0.31) % and 99 (8) %.
The like results for `O=C1/C(=C/c2ccc(O)cc2)CCc2ccc(O)cc21` [Compound 19] were, in that order, 44 (4) %, 1 (0.2) % and 104 (12) %.
As for `CN(C)c1ccc(/C=C2\CCc3ccc(O)cc3C2=O)cc1` [Compound 21], the “% Viability at 20 µM (SD) HeLa Cell” value in the series with HeLa cells (setting [3]) is given as 51 (4) %. Further, in series [1], the “% Viability at 20 µM (SD) T.b. brucei” value is reported as 25 (2) %. In addition, in series [2] (20 µM), the “% Viability at 20 µM (SD) 3D7” value is given as 142 (9) %.
For the molecule `O=C1/C(=C/c2ccc(Cl)c(Cl)c2)CCc2ccc(O)cc21` [Compound 22], in the series on HeLa cells (setting [3]), the “% Viability at 20 µM (SD) HeLa Cell” value is recorded as 5 (0.9) %. In addition, in series [1], the “% Viability at 20 µM (SD) T.b. brucei” value is 0.9 (0.2) %. Further, the “% Viability at 20 µM (SD) 3D7” value in series [2] (20 µM) is listed as 81 (1) %.
The like results for `COc1ccc(/C=C2\CCc3ccc(O)cc3C2=O)cc1` [Compound 23] were, in that order, 25 (2) %, 0.2 (0.1) % and 88 (10) %.
The matching figures for `O=C1/C(=C/c2ccc(Cl)cc2)CCc2ccccc21` [Compound 24]: 100 (3) %, 26 (8) % and 100 (8) %.
For `COc1ccc2c(c1)C(=O)/C(=C/c1cccnc1)CC2` [Compound 31], the “% Viability at 20 µM (SD) HeLa Cell” value in the series with HeLa cells (setting [3]) is 17 (4) %. Also, in series [2] (20 µM), the “% Viability at 20 µM (SD) 3D7” value is 85 (12) %.
Turning to `N=C(N)c1ccc(OCCCCCOc2ccc(C(=N)N)cc2)cc1` [PE, pentamidine, reference compound], the IC50 (in general, the concentration at which inhibition is half-maximal) in series [1] (Trypanosoma brucei, three-fold serial dilutions from 100 µM, read-out: IC50 (µM) T. b. brucei) was determined as 0.0042 µM.
